This note sets out measurements from US6608070B1, “2,3-substituted indole compounds as anti-inflammatory and analgesic agents” (priority 1999, dated 2003).

With `CCOC(=O)C=Cc1ccc(Cl)cc1N(CC(=O)c1ccc(Cl)cc1)S(=O)(=O)c1ccc(C)cc1` [Example 295, 3-{4-Chloro-2-[[2-(4-chloro-phenyl)-2-oxo-ethyl]-(toluene-4-sulfonyl)-amino]-phenyl}-acrylic Acid Ethyl Ester], the melting point is 162 to 165 °C.

Regarding `Cc1cccc(C(=O)c2[nH]c3ccc(Cl)cc3c2CC(=O)O)n1` [Example 38, [5-Chloro-2-(6-methylpyridine-2-carbonyl)-1H-indol-3-yl]acetic Acid], the melting point fell in the range of 225 to 226 °C.

Molecule `Cc1cnc(C(=O)c2[nH]c3cc(Cl)ccc3c2CC(=O)O)cc1C` [Example 104, [6-Chloro-2-(4,5-dimethylpyridine-2-carbonyl)-1 H-indol-3-yl]acetic Acid] registered a melting point of 226 to 228 °C.

Turning to `Cc1ccnc(C(=O)c2[nH]c3ccc(Cl)cc3c2CC(=O)NCCN)c1` [Example 272, [5-Chloro-2-(4-methylpyridine-2-carbonyl)-1H-indol-3-yl]-N-(2-aminoethyl)acetamide], the melting point came out at 165.7 °C.

In general, melting point refers to the temperature, or range, at which the solid turns liquid.
